From ChEMBL document CHEMBL1151896, “3D QSAR of novel estrogen-RGD peptide conjugates: getting insight into structural dependence of anti-osteoporosis activity and side effect of estrogen in ERT” (Bioorg Med Chem, 2009)
Peptide text beside a SMILES is read from it. * marks the point of attachment. Succinyl(O17-estradiol) = C[C@]12CC[C@@H]3c4ccc(O)cc4CC[C@H]3[C@@H]1CC[C@@H]2OC(=O)CCC(=O)*; Acetyl(estradiol-3-yloxy) = C[C@]12CC[C@@H]3c4ccc(OCC(=O)*)cc4CC[C@H]3[C@@H]1CC[C@@H]2O; X1 = C[C@]12CC[C@@H]3c4ccc(OCC(=O)*)cc4CC[C@H]3[C@@H]1CCC2=O

Tests used:
Mus musculus [1] = experiment: Antiosteoporosis activity against ovariectomized ICR mouse assessed as serum calcium level at 110.3 nmol/kg, po after 30 mins; assay type: functional
Mus musculus [2] = experiment: Antiosteoporosis activity against ovariectomized ICR mouse assessed as serum phosphorous level at 110.3 nmol/kg, po after 30 mins; assay type: functional
Mus musculus [3] = experiment: Antiosteoporosis activity against ovariectomized ICR mouse assessed as serum ALP activity at 110.3 nmol/kg, po after 30 mins; assay type: functional
Mus musculus [4] = experiment: Antiosteoporosis activity against ovariectomized ICR mouse assessed as dry femur weight at 110.3 nmol/kg, po after 30 mins; assay type: functional
Mus musculus [5] = experiment: Antiosteoporosis activity against ovariectomized ICR mouse assessed as femur ash weight at 110.3 nmol/kg, po after 30 mins; assay type: functional
Mus musculus [6] = experiment: Antiosteoporosis activity against ovariectomized ICR mouse assessed as femur length at 110.3 nmol/kg, po after 30 mins; assay type: functional
Mus musculus [7] = experiment: Antiosteoporosis activity against ovariectomized ICR mouse assessed as femur calcium content at 110.3 nmol/kg, po after 30 mins; assay type: functional
Mus musculus [8] = experiment: Antiosteoporosis activity against ovariectomized ICR mouse assessed as femur phosphorous content at 110.3 nmol/kg, po after 30 mins; assay type: functional
Mus musculus [9] = experiment: Antiosteoporosis activity against ovariectomized ICR mouse assessed as mineral content at 110.3 nmol/kg, po after 30 mins; assay type: functional
Mus musculus [10] = experiment: Toxicity in ovariectomized ICR mouse assessed as effect on spleen weight at 110.3 nmol/kg, po after 4 weeks; assay type: organism-based; settings: in vivo, 672 h
Mus musculus [11] = experiment: Toxicity in ovariectomized ICR mouse assessed as effect on lung weight at 110.3 nmol/kg, po after 4 weeks; assay type: organism-based; settings: in vivo, 672 h
Mus musculus [12] = experiment: Toxicity in ovariectomized ICR mouse assessed as effect on kidney weight at 110.3 nmol/kg, po after 4 weeks; assay type: organism-based; settings: in vivo, 672 h
Mus musculus [13] = experiment: Toxicity in ovariectomized ICR mouse assessed as effect on liver weight at 110.3 nmol/kg, po after 4 weeks; assay type: organism-based; settings: in vivo, 672 h
Mus musculus [14] = experiment: Toxicity in ovariectomized ICR mouse assessed as effect on body weight at 110.3 nmol/kg, po after 4 weeks; assay type: organism-based; settings: in vivo, 672 h
Mus musculus [15] = experiment: Toxicity in ovariectomized ICR mouse assessed as tail bleeding time at 110.3 nmol/kg, po for 30 mins; assay type: organism-based; settings: in vivo, 0.5 h
Mus musculus [16] = experiment: Toxicity in ovariectomized ICR mouse assessed as tail bleeding time at 110.3 nmol/kg, po for 90 mins; assay type: organism-based; settings: in vivo, 1.5 h
Mus musculus [17] = experiment: Toxicity in ovariectomized ICR mouse assessed as change in uterine weight at 110.3 nmol/kg, po after 4 weeks; assay type: organism-based; settings: in vivo, 672 h

CC(C)[C@H](NC(=O)[C@H](CC(=O)O)NC(=O)CNC(=O)[C@H](CCCNC(=N)N)NC(=O)[C@@H](NC(=O)[C@H](CC(=O)O)NC(=O)CNC(=O)[C@H](CCCNC(=N)N)NC(=O)COc1ccc2c(c1)CC[C@@H]1[C@@H]2CC[C@]2(C)C(=O)CC[C@@H]12)C(C)C)C(=O)O (X1-RGDVRGDV-OH)
Activity (Mus musculus [1]): 3 mM | Activity (Mus musculus [2]): 3.22 mM | Activity (Mus musculus [3]): 13.27 U/L | Activity (Mus musculus [4]): 55.39 mg | Activity (Mus musculus [5]): 35.29 mg | Activity (Mus musculus [6]): 1.66 cm | Activity (Mus musculus [7]): 60.5% | Activity (Mus musculus [8]): 21.84% | Activity (Mus musculus [9]): 0.62% | Activity (Mus musculus [10]): Non-toxic | Activity (Mus musculus [11]): Non-toxic | Activity (Mus musculus [12]): Non-toxic | Activity (Mus musculus [13]): Non-toxic | Activity (Mus musculus [14]): Non-toxic | Activity (Mus musculus [15]): 582 s | Activity (Mus musculus [16]): 514 s | Activity (Mus musculus [17]): 0.059 g

C[C@]12CC[C@@H]3c4ccc(OCC(=O)N[C@@H](CCCNC(=N)N)C(=O)NCC(=O)N[C@@H](CC(=O)O)C(=O)N[C@@H](CO)C(=O)O)cc4CC[C@H]3[C@@H]1CC[C@@H]2O ({Acetyl(estradiol-3-yloxy)}-RGDS-OH)
Activity (Mus musculus [1]): 3.33 mM | Activity (Mus musculus [3]): 26.62 U/L | Activity (Mus musculus [6]): 1.65 cm | Activity (Mus musculus [9]): 0.6% | Activity (Mus musculus [15]): 582 s | Activity (Mus musculus [16]): 577 s | Activity (Mus musculus [17]): 0.064 g

C[C@]12CC[C@@H]3c4ccc(OCC(=O)N[C@@H](CCCNC(=N)N)C(=O)NCC(=O)N[C@@H](CC(=O)O)C(=O)N[C@@H](Cc5ccccc5)C(=O)O)cc4CC[C@H]3[C@@H]1CC[C@@H]2O ({Acetyl(estradiol-3-yloxy)}-RGDF-OH)
Activity (Mus musculus [1]): 3.34 mM | Activity (Mus musculus [3]): 25.42 U/L | Activity (Mus musculus [5]): 33.99 mg | Activity (Mus musculus [6]): 1.67 cm | Activity (Mus musculus [9]): 0.6% | Activity (Mus musculus [15]): 557 s | Activity (Mus musculus [16]): 560 s | Activity (Mus musculus [17]): 0.067 g

CC(C)[C@H](NC(=O)[C@H](CC(=O)O)NC(=O)CNC(=O)[C@H](CCCNC(=N)N)NC(=O)COc1ccc2c(c1)CC[C@@H]1[C@@H]2CC[C@]2(C)C(=O)CC[C@@H]12)C(=O)O (X1-RGDV-OH)
Activity (Mus musculus [1]): 3.33 mM | Activity (Mus musculus [2]): 2.96 mM | Activity (Mus musculus [3]): 17.42 U/L | Activity (Mus musculus [4]): 54.12 mg | Activity (Mus musculus [5]): 33.99 mg | Activity (Mus musculus [6]): 1.66 cm | Activity (Mus musculus [7]): 57.24% | Activity (Mus musculus [8]): 20.08% | Activity (Mus musculus [9]): 0.61% | Activity (Mus musculus [15]): 563 s | Activity (Mus musculus [16]): 571 s | Activity (Mus musculus [17]): 0.066 g

C[C@]12CC[C@@H]3c4ccc(O)cc4CC[C@H]3[C@@H]1CC[C@@H]2O [ESTRADIOL]
Activity (Mus musculus [1]): 3.34 mM | Activity (Mus musculus [3]): 27.22 U/L | Activity (Mus musculus [6]): 1.64 cm | Activity (Mus musculus [9]): 0.61% | Activity (Mus musculus [15]): 417 s | Activity (Mus musculus [16]): 441 s | Activity (Mus musculus [17]): 0.108 g

C[C@]12CC[C@@H]3c4ccc(O)cc4CC[C@H]3[C@@H]1CCC2=O [ESTRONE]
Activity (Mus musculus [1]): 3.35 mM | Activity (Mus musculus [2]): 3.13 mM | Activity (Mus musculus [3]): 27.97 U/L | Activity (Mus musculus [4]): 53.03 mg | Activity (Mus musculus [5]): 32.08 mg | Activity (Mus musculus [6]): 1.65 cm | Activity (Mus musculus [7]): 56.2% | Activity (Mus musculus [8]): 19.11% | Activity (Mus musculus [9]): 0.61% | Activity (Mus musculus [15]): 411 s | Activity (Mus musculus [16]): 433 s | Activity (Mus musculus [17]): 0.114 g

CC(C)[C@H](NC(=O)[C@H](CC(=O)O)NC(=O)CNC(=O)[C@H](CCCNC(=N)N)NC(=O)CCC(=O)O[C@H]1CC[C@H]2[C@@H]3CCc4cc(O)ccc4[C@H]3CC[C@]12C)C(=O)O ({Succinyl(O17-estradiol)}-RGDV-OH)
Activity (Mus musculus [1]): 3.36 mM | Activity (Mus musculus [3]): 22.96 U/L | Activity (Mus musculus [5]): 34.7 mg | Activity (Mus musculus [6]): 1.67 cm | Activity (Mus musculus [9]): 0.61% | Activity (Mus musculus [15]): 551 s | Activity (Mus musculus [16]): 560 s | Activity (Mus musculus [17]): 0.064 g
